Measured values as given in publication PMC12452389, “Arginine-Derived Cationic Surfactants Containing Phenylalanine and Tryptophan: Evaluation of Antifungal Activity, Biofilm Eradication, Cytotoxicity, and Ecotoxicity” (Journal of Xenobiotics, 2025).
≈ marks a conversion by molar mass, not a printed value. Where “and” joins values, the source holds several entries; their conditions need not be identical. Equal values may be shown once. Where a name gives a salt, the structure may show the parent alone. Read-outs that look alike come from different tables or passages of the source.

What was measured:
[1] = tested on: Daphnia magna; assay: Acute toxicity, immobilization test; type: in vivo; conditions: Daphnia magna, 48 h
Outline: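 Neonates under 24 h old exposed in the dark at 20 °C, pH 8.0, Ca:Mg 4:1, hardness 250 mg/L as CaCO3, to ten geometric concentrations, 4 replicates of 5 animals. Immobility (no swimming after 15 s gentle stimulation) scored at 48 h; immobilization plotted against concentration on probability–log scale.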

[2] = design: method as in PMID 36559096; conditions: conductivity values; cited from earlier work
[3] = tested on: erythrocytes; assay: Hemolytic activity assay; type: cell-based; conditions: rabbit erythrocytes
Outline: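 Rabbit erythrocytes washed in PBS pH 7.4, exposed to varying surfactant concentrations in PBS for 10 min at room temperature. Hemolysis read as supernatant absorbance at 540 nm relative to distilled-water 100% lysis control; HC50 taken from concentration–response curves.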

[4] = tested on: Candida auris ATCC 21092; assay: MIC broth microdilution; type: cell-based; conditions: C. auris; for MIC: Candidozyma auris, ATCC21092, read-out: MIC
Outline: (§1)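 Broth microdilution in RPMI 1640, twofold compound dilutions 256–2 μg/mL, final inoculum 7.5 × 10^5 CFU/mL from Sabouraud-grown colonies. MIC read by turbidity and confirmed by 0.015% resazurin, 3 h at 30 °C, blue-to-pink colour change.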

[5] = tested on: Candida albicans ATCC 90028; assay: MIC broth microdilution; type: cell-based; conditions: C. albicans; for MIC: Candida albicans, ATCC90028, read-out: MIC
Outline: as §1

[6] = tested on: Candida rugosa ATCC 10571; assay: MIC broth microdilution; type: cell-based; conditions: C. rugosa; for MIC: Diutina rugosa, ATCC10571, read-out: MIC
Outline: as §1

[7] = tested on: Candida glabrata ATCC 66032; assay: MIC broth microdilution; type: cell-based; conditions: for MIC: Nakaseomyces glabratus, read-out: MIC
Outline: as §1

[8] = tested on: Candida tropicalis ATCC 7349; assay: MIC broth microdilution; type: cell-based; conditions: C. tropicalis; for MIC: Candida tropicalis, ATCC7349, read-out: MIC
Outline: as §1

[9] = tested on: Cyberlindnera jadinii ATCC 60459 (C. jardinii); assay: MIC broth microdilution; type: cell-based; conditions: for Selectivity Index (HC50/MIC): C. jardini; for MIC: Williopsis jadinii
Outline: as §1

[10] = tested on: Candida parapsilosis ATCC 22019; assay: MIC broth microdilution; type: cell-based; conditions: C. parapsilosis; for MIC: Lodderomyces parapsilosis, ATCC22019, read-out: MIC
Outline: as §1

[11] = tested on: Vibrio fischeri; assay: Luminescence reduction test; type: cell-based; conditions: Aliivibrio fischeri, 0.25 h; Vibrio fischeri bioluminescence, 15 min of exposure; 95% confidence intervals in parentheses
Description: Ecotoxicological assessment of cationic surfactants was conducted using the Vibrio fischeri luminescent bioassay. This method relies on the measurement of decreased bioluminescent output from marine bacteria following contact with potentially toxic substances. Regression analysis was used to determine the concentration of the compound that caused a 50% reduction (EC50) in the amount of light emitted by the bacteria. The stated toxicity statistics given are based on the bacteria being exposed to the ionic liquid solution for 15 min at 15 °C.

[12] = Surface tension, pendant drop tensiometer (cmc, γc); type: physicochemical; conditions: for cmc: from surface tension
Description: Surface tension was measured using a custom-built pendant drop tensiometer, as described in detail in reference. Briefly, a droplet of surfactant solution is formed at the tip of a straight-cut Teflon tube. The image of the droplet is captured using a webcam, and its shape is analyzed by fitting the droplet profile to the Laplace–Young equation [14], To minimize evaporation, all measurements were conducted in a saturated humid atmosphere. The use of this technique is especially well-suited for cationic surfactants because it helps to mitigate complications related to surface adsorption. Critical micelle concentration values (cmc) were determined by finding the intersection of the linear fits before and after the break in the curves.

[13] = ATCC66032, 24 h, C. glabrata, RPMI 1640, 24 h, 30 °C
[14] = ATCC66032, C. glabrata, value in parentheses
[15] = ATCC60459, C. jardinii, value in parentheses, read-out: MIC

Structure (SMILES)	EC50 [1]	cmc Cond [2]	HC50 ([3]; 10 min, room temperature)	HC50 ([3]; value in parentheses)	Selectivity Index (HC50/MIC) ([4]; Table S1)	MIC ([4]; RPMI 1640, 24 h, 30 °C)	MIC ([4]; value in parentheses)	MIC ([5]; RPMI 1640, 24 h, 30 °C)	MIC ([5]; value in parentheses)	MIC ([6]; RPMI 1640, 24 h, 30 °C)	MIC ([6]; value in parentheses)	MIC [7, 13]	MIC [7, 14]	MIC ([8]; RPMI 1640, 24 h, 30 °C)	MIC ([8]; value in parentheses)	MIC ([10]; RPMI 1640, 24 h, 30 °C)	MIC ([10]; value in parentheses)	EC50 [11]	γc (surface tension at the cmc) [12]	cmc [12]	other results
CCCCCCCCCCCC(=O)NC(CCCNC(=N)N)C(=O)OC (stereo not shown) [C12AM]	4.4 µg/mL (≈ 11.9 µM)	6 mM	109 ± 0.6 µg/mL	270 ± 1.7 µM	0.9	128 µg/mL	312 µM	32 µg/mL	78 µM	64 µg/mL	156 µM	16 µg/mL	39 µM	8 µg/mL	19 µM	16 µg/mL	39 µM	1.9 µg/mL (≈ 5.13 µM)	29.5 ± 1.5 mNm^−1	1.7 mM	Selectivity Index (HC50/MIC) ([5]; Table S1): 3.4; Selectivity Index (HC50/MIC) ([6]; Table S1): 1.7; Selectivity Index (HC50/MIC) ([7]; C. glabrata, Table S1): 7; Selectivity Index (HC50/MIC) ([8]; Table S1): 14; Selectivity Index (HC50/MIC) ([9]; Table S1): 1.7; MIC ([9]; ATCC60459): 156 µM; MIC ([9]; ATCC60459, 24 h): 64 µg/mL; Selectivity Index (HC50/MIC) ([10]; Table S1): 7
CCCCCCCCCCNC(=O)C(CCCNC(=N)N)NC(=O)C(N)Cc1ccccc1 (stereo not shown) [PANHC10]	22 µg/mL (≈ 47.8 µM)	7.2 mM	215 ± 22 µg/mL	404 ± 42 µM		256 µg/mL	480 µM	128 µg/mL	240 µM	128 µg/mL	240 µM	64 µg/mL	120 µM	128 µg/mL	240 µM	64 µg/mL	120 µM	5.6 µg/mL (≈ 12.2 µM)	30.6 ± 9.7 mNm^−1	6.7 mM	Selectivity Index (HC50/MIC) ([4]; Table S2): 0.8; Selectivity Index (HC50/MIC) ([5]; Table S2): 1.6; Selectivity Index (HC50/MIC) ([6]; Table S2): 1.6; Selectivity Index (HC50/MIC) ([7]; C. glabrata, Table S2): 3.7; Selectivity Index (HC50/MIC) ([8]; Table S2): 1.6; Selectivity Index (HC50/MIC) ([9]; Table S2): 1.6; MIC ([9]; ATCC60459, C. jardinii, RPMI 1640, 24 h, 30 °C, read-out: MIC): 128 µg/mL; MIC [9, 15]: 240 µM; Selectivity Index (HC50/MIC) ([10]; Table S2): 3.7
CCCCCCCCCCCCNC(=O)C(CCCNC(=N)N)NC(=O)C(N)Cc1ccccc1 (stereo not shown) [PANHC12, phenylalanine-arginine dodecyl amide dihydrochloride]	3.4 µg/mL	2.2 mM	26 ± 1.2 µg/mL	46 ± 2.2 µM	0.4	64 µg/mL	112 µM	32 µg/mL	56 µM	64 µg/mL	112 µM	32 µg/mL	56 µM	32 µg/mL	56 µM	32 µg/mL	56 µM	3 µg/mL	30.4 ± 2.6 mNm^−1	1.5 mM	Selectivity Index (HC50/MIC) ([4]; Table S2): 0.4; Selectivity Index (HC50/MIC) ([5]; Table S1): 0.8; Selectivity Index (HC50/MIC) ([5]; Table S2): 0.8; Selectivity Index (HC50/MIC) ([6]; Table S1): 0.4; Selectivity Index (HC50/MIC) ([6]; Table S2): 0.4; Selectivity Index (HC50/MIC) ([7]; C. glabrata, Table S1): 0.8; Selectivity Index (HC50/MIC) ([7]; C. glabrata, Table S2): 0.8; Selectivity Index (HC50/MIC) ([8]; Table S1): 0.8; Selectivity Index (HC50/MIC) ([8]; Table S2): 0.8; Selectivity Index (HC50/MIC) ([9]; Table S1): 0.8; Selectivity Index (HC50/MIC) ([9]; Table S2): 0.8; MIC ([9]; ATCC60459, 24 h): 32 µg/mL and 88 µM; MIC [9, 15]: 56 µM; Selectivity Index (HC50/MIC) ([10]; Table S1): 0.8; Selectivity Index (HC50/MIC) ([10]; Table S2): 0.8
